Laboratory results: the Kinase Knowledgebase extract (Sharma et al. 2016)

biological target: CDK2 (human) (UniProt P24941); assay: Enzyme Assay

Ki, < 1 µM:
O=c1[nH][nH]c2cc([C@@H]3C[C@H]3c3nc(Nc4n[nH]c5c(F)cccc45)c4ccccc4n3)ccc12
O=c1[nH][nH]c2cc(Nc3nc(Nc4n[nH]c5cccc(F)c45)c4ccccc4n3)ccc12
O=c1[nH][nH]c2cc(Nc3nc(Nc4cc(C5CC5)[nH]n4)c4cc(N5CCOCC5)ccc4n3)ccc12
O=c1[nH][nH]c2ccc(-c3cc(Nc4n[nH]c5cccnc45)c4ccccc4n3)cc12
Cn1cnc(NCCCNc2ccc3c(=O)[nH][nH]c3c2)c1
Cn1cnc(Nc2cccc(Nc3ccc4c(=O)[nH][nH]c4c3)c2)c1
CC(C)(C)c1cc(Nc2nc(-c3ccc4[nH][nH]c(=O)c4c3C(F)(F)F)nc3ccccc23)n[nH]1
COc1ccc(-c2cc(Nc3cc(C)[nH]n3)nc(Sc3ccc4c(=O)[nH][nH]c4c3)n2)cc1
Cc1cc(Nc2nc(Sc3ccc4c(=O)[nH][nH]c4c3)nc3cc([N+](=O)[O-])ccc23)n[nH]1
O=c1[nH][nH]c2cc(OCCONc3cc(C4CC4)[nH]n3)ccc12
Cn1cnc(NC2CCC(Sc3ccc4c(=O)[nH][nH]c4c3)C2)c1 (stereo not given)
O=c1[nH][nH]c2cc(Sc3cc(Nc4cc(C5CC5)[nH]n4)ccn3)ccc12
O=C(CC(=O)Oc1ccc2c(=O)[nH][nH]c2c1)Nc1nccnn1
O=c1[nH][nH]c2cc(Nc3nc(Nc4cc(C5CC5)[nH]n4)cc(-c4ccccc4)n3)ccc12
O=c1[nH][nH]c2cc(NC(CCNc3ccccn3)Cc3ccccc3)ccc12 (stereo not given)
CC(=O)NC1CCC(c2nc(-c3cc4c(=O)[nH][nH]c4cc3C(F)(F)F)nc(Nc3n[nH]c4ccccc34)c2C)CC1 (stereo not given)
Cc1cc(Nc2cc(C)[nH]n2)nc(Cc2ccc3c(=O)[nH][nH]c3c2)n1
O=c1[nH][nH]c2ccc(CNc3cc(Nc4cc(C5CC5)[nH]n4)ccn3)cc12
O=c1[nH][nH]c2cc(CSc3cc(Nc4n[nH]c5ccccc45)ccn3)ccc12
Cc1cc(Nc2cc(-c3cc4c(=O)[nH][nH]c4cc3C(F)(F)F)nc(N3CCNCC3)c2)n[nH]1
Cc1cc(Nc2nc(COc3ccc4c(=O)[nH][nH]c4c3)nc3c2CNCC3)n[nH]1
O=c1[nH][nH]c2cc(Nc3nc(Nc4cc(-c5ccccc5)[nH]n4)cc(-c4cccc([N+](=O)[O-])c4)n3)ccc12
Cc1cnc(NCCCNc2ccc3c(=O)[nH][nH]c3c2)s1
O=c1[nH][nH]c2cc(C(F)(F)F)c(-c3cc4cccnc4c(Nc4n[nH]c5ccccc45)n3)cc12
O=c1[nH][nH]c2cc(Nc3nc(Nc4cc(C5CC5)[nH]n4)c4ccc(Cl)cc4n3)ccc12
O=c1[nH][nH]c2ccc(Nc3nc(Nc4cc(C5CC5)[nH]n4)c4ccccc4n3)cc12
O=c1[nH][nH]c2cc(Nc3nc(Nc4n[nH]c5ncccc45)c4ccccc4n3)ccc12
Cn1cnc(NCCC(Cc2ccccc2)Oc2ccc3c(=O)[nH][nH]c3c2)c1 (stereo not given)
O=c1[nH][nH]c2cc(CC3CCCC(Nc4cc(C5CC5)[nH]n4)C3)ccc12 (stereo not given)
O=c1[nH][nH]c2cc(C(F)(F)F)c(-c3nc(Nc4n[nH]c5c(F)cc(F)cc45)c4nccnc4n3)cc12
O=c1[nH][nH]c2ccc(-c3nc(Nc4n[nH]c5cc(=O)n(-c6ccc(Oc7ccccc7)cc6)nc45)c4ccccc4n3)cc12
O=c1[nH][nH]c2cc(OCCCNc3cc(C4CC4)[nH]n3)ccc12
O=c1[nH][nH]c2cc(Oc3cc4ccccc4c(Nc4n[nH]c5ccccc45)n3)ccc12
Cc1cnc(NC2CCC(Nc3ccc4c(=O)[nH][nH]c4c3)C2)s1 (stereo not given)
Cc1cnc(NC2CCCC(Nc3ccc4c(=O)[nH][nH]c4c3)C2)s1 (stereo not given)
Cc1cnc(NC(=O)CCCc2ccc3c(=O)[nH][nH]c3c2)s1
O=c1[nH][nH]c2cc(COCc3nc(Nc4cc(C5CC5)[nH]n4)c4ccccc4n3)ccc12
O=c1[nH][nH]c2ccc(-c3nc(Nc4n[nH]c5ccccc45)c4cccnc4n3)c(C(F)(F)F)c12
O=c1[nH][nH]c2cc(Sc3cccc(Nc4cc(C5CC5)[nH]n4)n3)ccc12
O=c1[nH][nH]c2cc(CCC3CCCC3Nc3ccccn3)ccc12 (stereo not given)
COCc1cc(Nc2cc(C)[nH]n2)nc(COc2ccc3[nH][nH]c(=O)c3c2)n1
O=c1[nH][nH]c2cc(NCCCNc3ccccn3)ccc12
O=c1[nH][nH]c2cc(Nc3nc(Nc4cc(C5CC5)[nH]n4)c4cc(-c5ccccc5)ccc4n3)ccc12
Cc1cc(Nc2nc(Nc3ccc4c(=O)[nH][nH]c4c3)nc3cccc(C)c23)n[nH]1
Cc1cnc(NC2CCC(Sc3ccc4c(=O)[nH][nH]c4c3)C2)s1 (stereo not given)
O=c1[nH][nH]c2ccc(-c3nc(Nc4n[nH]c5ccccc45)cc(-c4cnc[nH]4)n3)c(C(F)(F)F)c12
O=c1[nH][nH]c2cc(Nc3nc(Nc4cc(C5CCC5)[nH]n4)c4ccccc4n3)ccc12
O=c1[nH][nH]c2cc(C(F)(F)F)c(-c3cc(Nc4n[nH]c5ccccc45)c4cccnc4n3)cc12
Cc1cc(Nc2cc(-c3ccco3)[nH]n2)nc(Nc2ccc3c(=O)[nH][nH]c3c2)n1
O=c1[nH][nH]c2ccc(-c3cnnc(Nc4cc(C5CC5)[nH]n4)c3)cc12
O=c1[nH][nH]c2cc(Sc3cc4ccccc4c(Nc4n[nH]c5ccccc45)n3)ccc12
CC(=O)Nc1ccc(Sc2cc(Nc3cc(C)[nH]n3)nc(-c3ccc4[nH][nH]c(=O)c4c3)n2)cc1
Cc1cc(Nc2cc(C(C)(C)C)nc(Sc3ccc4c(=O)[nH][nH]c4c3)n2)n[nH]1
CN(C)CCNC(=O)c1cc(Nc2n[nH]c3ccccc23)nc(Sc2ccc3c(=O)[nH][nH]c3c2)n1
Cc1cc(Nc2nc(CSc3ccc4[nH][nH]c(=O)c4c3)nc3c2CCCC3)n[nH]1
Cc1cc(Nc2cc(-c3ccccc3)[nH]n2)nc(Nc2ccc3c(=O)[nH][nH]c3c2)n1
O=c1[nH][nH]c2ccc(-c3nc(Nc4n[nH]c5c(F)cc(F)cc45)c4cc(N5CCOCC5)ccc4n3)c(C(F)(F)F)c12
N#Cc1cc2[nH][nH]c(=O)c2cc1-c1nc(Nc2n[nH]c3ccccc23)nc(N2CCCCC2)n1
CNC(=O)c1cc(Nc2cc(C)[nH]n2)nc(Sc2ccc3c(=O)[nH][nH]c3c2)n1
Cc1cc(Nc2nc(Sc3ccc4c(=O)[nH][nH]c4c3)nc3cc(NO)ccc23)n[nH]1
O=c1[nH][nH]c2cc(OCCC(Nc3nccnn3)c3ccccc3)ccc12 (stereo not given)
Cn1cnc(NCCCOc2ccc3c(=O)[nH][nH]c3c2)c1
CCc1cc(Nc2nc(-c3ccncc3)nc(-c3ccc4[nH][nH]c(=O)c4c3)n2)n[nH]1
Cn1cnc(NC2CCC(Oc3ccc4c(=O)[nH][nH]c4c3)C2)c1 (stereo not given)
O=c1[nH][nH]c2cc(SC3COCC(Nc4ccccn4)C3)ccc12 (stereo not given)
